What all share (format): functional, cell-based
The target in experiment [1] is T1, Cannabinoid receptor 2 (Homo sapiens, UniProt P34972). Nature of the experiment: Agonist activity at human CB2 receptor expressed in CHO-K1 cells co-transfected with human Galpha16 assessed as intracellular calcium flux.
Experiment [2] concerns the target T1, Cannabinoid receptor 2. Nature of the experiment: Antagonist activity at human CB2 receptor expressed in CHO-K1 cells co-transfected with human Galpha16 assessed as intracellular calcium flux. For orientation: Calcium assays in cells follow changes in intracellular calcium, usually with a dye or a luminescent sensor.
Experiment [3] deals with T2, Cannabinoid receptor 1 (Homo sapiens, UniProt P21554). The experiment is described as follows: Antagonist activity at human CB1 receptor expressed in CHO-K1 cells co-transfected with human Galpha16 assessed as intracellular calcium flux.
T2 sequence (P21554 whole entry): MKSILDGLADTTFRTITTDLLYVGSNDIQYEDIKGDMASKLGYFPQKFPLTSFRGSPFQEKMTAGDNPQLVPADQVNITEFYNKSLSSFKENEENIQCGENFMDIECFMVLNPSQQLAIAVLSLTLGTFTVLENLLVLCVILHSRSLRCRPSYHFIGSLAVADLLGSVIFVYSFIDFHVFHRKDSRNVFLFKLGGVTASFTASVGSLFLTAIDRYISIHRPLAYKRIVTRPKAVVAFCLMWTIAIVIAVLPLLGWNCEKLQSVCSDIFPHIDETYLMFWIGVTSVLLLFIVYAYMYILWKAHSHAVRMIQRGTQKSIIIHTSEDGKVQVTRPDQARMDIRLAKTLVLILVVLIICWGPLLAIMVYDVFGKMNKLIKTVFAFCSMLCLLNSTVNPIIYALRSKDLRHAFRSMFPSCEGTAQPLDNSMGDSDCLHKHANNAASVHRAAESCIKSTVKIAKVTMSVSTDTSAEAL
Experiment [4] concerns the target T2, Cannabinoid receptor 1. Nature of the experiment: Agonist activity at human CB1 receptor expressed in CHO-K1 cells co-transfected with human Galpha16 assessed as intracellular calcium flux.
Experiment [5] has as its target T1, Cannabinoid receptor 2. Nature of the experiment: Agonist activity at human CB2 receptor expressed in CHO-K1 cells co-transfected with human Galpha16 assessed as intracellular calcium flux at 10 uM.
The target in experiment [6] is T1, Cannabinoid receptor 2. The experiment is described as follows: Agonist activity at human CB2 receptor expressed in CHO-K1 cells co-transfected with human Galpha16 assessed as intracellular calcium flux at 10 uM relative to control. To be noted: filed as agonist.

Each structure is given as a SMILES string. pEC50, pIC50: −log10 of the molar value. Activity calls are given as the source filed them. The rule behind the calls is not given here.

The pEC50 is the negative decadic logarithm of the EC50, by convention in mol/L. As a reminder, the pIC50 is the negative decadic logarithm of the IC50, by convention in mol/L. As a reminder, the Emax is the size of the effect at its maximum, as opposed to the concentration needed.

T1 sequence (P34972 whole entry): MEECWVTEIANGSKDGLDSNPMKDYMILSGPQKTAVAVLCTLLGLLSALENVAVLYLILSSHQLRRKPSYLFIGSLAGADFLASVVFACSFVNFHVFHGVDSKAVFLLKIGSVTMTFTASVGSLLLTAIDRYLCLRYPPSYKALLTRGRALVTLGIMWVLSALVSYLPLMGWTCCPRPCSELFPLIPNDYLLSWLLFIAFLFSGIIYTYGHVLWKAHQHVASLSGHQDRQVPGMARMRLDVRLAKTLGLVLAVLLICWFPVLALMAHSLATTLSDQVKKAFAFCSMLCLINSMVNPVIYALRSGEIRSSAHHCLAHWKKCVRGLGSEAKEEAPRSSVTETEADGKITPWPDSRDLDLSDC

Take `COc1ccc(C(=O)c2c(C)n(CCN3CCOCC3)c3cc(I)ccc23)cc1`: the pEC50 in experiment [1] is less than 4.00. In addition, the pIC50 in experiment [2] was 6.75.

For `CCCCCn1nc(C(=O)NC(C)(C)CO)cc1-c1cc(C)cs1`, the pEC50 in experiment [1] and in experiment [4] was less than 4.00 throughout. Further, the pIC50 was less than 4.00 in experiment [3] and 7.16 in experiment [2].

Consider `CCCCCn1nc(-c2cccn2CC)cc1C(=O)NC(C)(C)CO`, for which the pEC50 in experiment [1] and in experiment [4] was less than 4.00 throughout. Moreover, the pIC50 in experiment [3] is less than 4.00.

Consider `COCCn1nc(C(=O)NC(C)(C)CO)cc1-c1cccs1`, for which the pEC50 is 6.89 in experiment [1] and less than 4.00 in experiment [4]. Also, the negative logarithm of the IC50 (pIC50) in experiment [3] and in experiment [2] was less than 4.00 each time. Further, the outcome in experiment [5] (filed as agonist) was Active. For the same compound, the Emax in experiment [6] worked out at 46%.

For `CCCCCCn1nc(C(=O)NC(C)(C)CO)cc1-c1cccs1`, the pEC50 in experiment [1] is 7.71; in experiment [4] it was less than 4.00. For the same compound, the pIC50 in experiment [3] and in experiment [2] was less than 4.00 in each case. Further, the Emax in experiment [6] was 72%.

For `CCCCCn1nc(C(=O)NC(C)(C)CO)cc1-c1ccc(C)s1`, the pEC50 in experiment [1] and in experiment [4] was less than 4.00 each time. The results for the pIC50 in experiment [3] and in experiment [2] were less than 4.00 and 7.55, respectively.

Regarding `CCCCCn1nc(C(=O)NC(C)(C)CO)cc1-c1ccsc1`, the pEC50 in experiment [1] is 6.85; in experiment [4], less than 4.00. Besides, the pIC50 in experiment [3] and in experiment [2] was less than 4.00 each time. The Emax in experiment [6] was 50%.

In the case of `CCCCCn1nc(-c2cccn2C)cc1C(=O)NC(C)(C)CO`, the pEC50 in experiment [1] and in experiment [4] was less than 4.00 throughout. In addition, in experiment [3], the pIC50 is less than 4.00.

In the case of `CCCCCn1nc(C(=O)NC(C)(C)CO)cc1-c1cc(Cl)cs1`, the pEC50 in experiment [1] and in experiment [4] was less than 4.00 each time. Moreover, the pIC50 in experiment [3] is less than 4.00; in experiment [2], 7.46.

On to `CCCCCn1nc(C(=O)NC(C)(C)CO)cc1-c1nccn1C`, for which the pEC50 in experiment [1] and in experiment [4] was less than 4.00 in each case. Also, the pIC50 in experiment [3] and in experiment [2] was less than 4.00 in each case.

With `CCCCCn1nc(C(=O)NC(C)(C)CO)cc1-c1sccc1Cl`, the pEC50 is 7.67 in experiment [1] and less than 4.00 in experiment [4]. Moreover, the pIC50 in experiment [3] and in experiment [2] was less than 4.00 throughout. Besides, the Emax in experiment [6] is 76%.

With `CCCCCn1nc(C(=O)NC(C)(C)CO)cc1-c1ccnn1C`, the pEC50 in experiment [1] and in experiment [4] was less than 4.00 each time. The pIC50 in experiment [3] and in experiment [2] was less than 4.00 each time.

As for `CCCCn1nc(C(=O)NC(C)(C)CO)cc1-c1ccn(C)c1`, the pEC50 in experiment [1] and in experiment [4] was less than 4.00 in each case. The pIC50 in experiment [3] and in experiment [2] was less than 4.00 throughout. Moreover, in experiment [5], the result was inactive.

In the case of `CCCCCn1nc(-c2ccco2)cc1C(=O)NC(C)(C)CO`, the pEC50 in experiment [1] and in experiment [4] was less than 4.00 in each case. Further, the pIC50 in experiment [3] is less than 4.00.

As to `CCCCn1nc(C(=O)NC(C)(C)CO)cc1-c1cncs1`, the pEC50 in experiment [1] and in experiment [4] was less than 4.00 throughout. Besides, the pIC50 in experiment [3] and in experiment [2] was less than 4.00 in each case. Also, the result in experiment [5] was inactive.

Turning to `CCCCCn1nc(C(=O)NC(C)(C)CO)cc1-c1nccs1`, the pEC50 in experiment [1] and in experiment [4] was less than 4.00 in each case. In addition, the pIC50 in experiment [3] and in experiment [2] was less than 4.00 each time.

Turning to `CCCCCn1nc(C(=O)NC(C)(C)CO)cc1-c1cccn1C`, the pEC50 in experiment [1] is 7.32; in experiment [4], less than 4.00. Besides, in experiment [3], the pIC50 was less than 4.00. The maximum response (Emax) in experiment [6] was 90%.

Regarding `CCCCCn1nc(C(=O)NC(C)(C)CO)cc1-c1ccc(Cl)s1`, the pEC50 in experiment [1] and in experiment [4] was less than 4.00 in each case. Moreover, the pIC50 in experiment [3] is less than 4.00; in experiment [2] it was 7.49.

On to `CCCCCn1nc(-c2cccs2)cc1C(=O)NC(C)(C)CO`, for which the pEC50 in experiment [1] and in experiment [4] was less than 4.00 each time. Also, in experiment [3], the pIC50 was less than 4.00.

The values are drawn from ChEMBL document CHEMBL6078695, “Design, synthesis, and biological evaluations of 5-aryl-pyrazole-3-carboxamide derivatives as selective CB2 receptor agonists for the treatment of colitis” (Eur J Med Chem, 2025).
